How the values were obtained:
[1] = test system: patient-derived HGSOC tumor spheroids; experiment: Patient derived spheroid assay with Taxol; assay type: cell-based
[2] = Pharmacokinetic studies in mice; assay type: in vivo, female CD-1 mice; settings: i.p. exposure corrected for PPB
[3] = reported for 1a at 10 mg/kg, oral; cited from earlier work

unbound drug AUC0-7h obs [2]	Compound	single agent toxicity [1]	AUC0-∞ [3]
1.1 µM·h	CC(Sc1nc2nn(C3COC3)cc2c(=O)n1-c1ccccc1)c1ccccn1 (centres unmarked) [Compound 69, 2-(oxetan-3-yl)-5-phenyl-6-((1-(pyridin-2-yl)ethyl)thio)-2H-pyrazolo[3,4-d]pyrimidin-4(5H)-one]	no single agent toxicity	–
–	CS(=O)(=O)N1CCN(C(=O)c2cnc3ccc(F)cc3c2-c2ccc(C3(C#N)CC3)cc2)CC1 [Compound 1a]	–	14.6 µM·h
0.6 µM·h	CC(Sc1nc2nn(C3COC3)cc2c(=O)n1-c1ccccc1)c1ccccc1 (centres unmarked) [Compound 68, 2-(oxetan-3-yl)-5-phenyl-6-((1-phenylethyl)thio)-2H-pyrazolo[3,4-d]pyrimidin-4(5H)-one]	–	–
0.5 µM·h	CC(Sc1nc2nn(C3(C)COC3)cc2c(=O)n1-c1ccccc1)c1ccccc1 (centres unmarked) [Compound 74, 2-(3-methyloxetan-3-yl)-5-phenyl-6-((1-phenylethyl)thio)-2H-pyrazolo[3,4-d]pyrimidin-4(5H)-one]	–	–

— publication PMC7855449 (European journal of medicinal chemistry, 2020)
